Data on 20 molecules can be found in US20120035214A1, “RENIN INHIBITORS” (Merck Canada Inc., priority 2009, published 2012).

Experiment [1] deals with T1, Human recombinant renin (Homo sapiens, UniProt P00797).
T1 construct: purchased Proteos
T1 sequence (P00797 67-406): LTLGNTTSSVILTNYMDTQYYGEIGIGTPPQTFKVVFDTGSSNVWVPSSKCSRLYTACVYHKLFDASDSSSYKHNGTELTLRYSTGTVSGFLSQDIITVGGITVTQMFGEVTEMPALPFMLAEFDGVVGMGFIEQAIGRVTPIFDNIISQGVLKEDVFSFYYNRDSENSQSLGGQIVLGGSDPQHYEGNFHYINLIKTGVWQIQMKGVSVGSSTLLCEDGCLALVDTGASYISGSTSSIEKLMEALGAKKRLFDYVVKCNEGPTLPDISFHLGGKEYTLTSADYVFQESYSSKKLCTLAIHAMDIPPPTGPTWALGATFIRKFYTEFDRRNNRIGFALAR
In words: Inhibition of human recombinant renin (QFRET, buffer). It counts as biochemical. As to conditions: buffer: 50 mM MOPS pH 7.4, 100 mM NaCl, 0.002% Tween 20; 37° C., 3 hours. The method, then:
Inhibition of Human Recombinant Renin
Human recombinant renin (Proteos) in 50 mM MOPS pH 7.4, 100 mM NaCl, 0.002% Tween 20 at a final concentration of […] is incubated with inhibitors from a 50 fold concentrated DMSO solution and 6 μM of an internally-quenched fluorescent peptide: DNP-[…]D,L-Amp (SEQ ID NO: 1); Paschalidou K. et al., Biochem J., 2004, 382, 1031). The reactions take place in a Costar 384 well black plate (#3573) at 37° C. for 3 hours. Fluorescence is measured at times 0 and 3 hours with a SpectraMax Gemini EM reader set at an excitation wavelength of 328 nm and at an emission wavelength of 388 nm. Background fluorescence at t=0 is subtracted from the measurement at t=3 hours. Inhibitory activity of the compounds is expressed as IC50.

Experiment [2] has as its target T2, recombinant renin in human plasma (Homo sapiens, UniProt P00797).
T2 construct: purchased Proteos
T2 sequence (P00797 67-406): T1 sequence (P00797 67-406)
The experiment can be described thus: Inhibition of renin in human plasma (QFRET, plasma). The format is biochemical. As to conditions: human EDTA plasma with 1 nM recombinant renin added; 37° C., 1 hour. The protocol:
Inhibition of Renin in Human Plasma
Human EDTA-collected plasma is rapidly thawed in warm water and centrifuged at 2900 g for 15 minutes at 4° C. The supernatant is collected and recombinant renin (Proteos) is added at a final concentration of 1 nM. The plasma is transferred to a Costar black 384 well plate (#3573). Renin inhibitors are added from a 17.5 fold concentrated DMSO solution and pre-incubated at 37° C. for 10 minutes. The internally-quench fluorescent peptide QXL520™-[…](5-FAM) (Anaspec), SEQ ID NO: 2, is diluted in 3M Tris pH 7.2, 200 mM EDTA and added to the plasma. The final concentrations are: 6 μM substrate, 342 mM Tris, 23 mM EDTA. The plate is incubated at 37° C. for 1 hour. The plate is read in a SpectraMax Gemini EM reader set at an excitation wavelength of 490 nm and an emission wavelength of 520 nm at times 0 and 1 hour. Background fluorescence at t=0 is subtracted from the measurement at t=1 hour. Inhibitory activity of the compounds is expressed as IC50.

With `Cc1cc(-c2ccccc2OCc2cccnc2)ccc1[C@H]1CNCC[C@@H]1c1cc(F)cc(F)c1` (racemic) [Structure 38], the half-maximal inhibitory concentration (IC50) – broadly, the concentration that inhibits the measured activity by half – in experiment [1] is 150 nM; in experiment [2], more than 28000 nM.
The matching figures for `Cc1cc(-c2ccccc2CCN)ccc1[C@H]1CNCC[C@@H]1c1cc(F)cc(F)c1` (racemic) [Structure 27]: 81 nM and 1040 nM.
The matching figures for `CC(=O)NCCc1ccccc1-c1ccc([C@H]2CNCC[C@@H]2c2cc(F)cc(F)c2)c(C)c1` (racemic) [Structure 15]: 1.6 nM and 18 nM.
The matching figures for `Cc1cc(-c2cccc3ccc(O)cc23)ccc1[C@H]1CNCC[C@@H]1c1cc(F)cc(F)c1` (racemic) [Structure 29]: 93 nM and more than 28000 nM.
Regarding `COC(=O)NCCc1ccccc1-c1onc([C@H]2CNCC[C@]2(O)c2ccc(F)c(F)c2)c1C(C)=O` [Structure 84], the IC50 in experiment [1] was 10 nM; in experiment [2], 93 nM.
In the same order, the values of `COC[C@H](C)COCc1ccc([C@@]2(O)CCNC[C@@H]2c2ccc(-c3ccccc3CCNC(N)=O)cc2C)cc1` [Structure 124] are 0.63 nM and 3.6 nM.
On to `COCCC[C@@H](CNC(C)=O)c1ccccc1-c1onc([C@H]2CNCC[C@]2(O)c2ccc(F)c(F)c2)c1Br` [Structure 100], for which the figures for the 50% inhibitory concentration (IC50) in experiment [1] and in experiment [2] were 1.2 nM and 3.9 nM, respectively.
`CC(=O)NCCc1ccccc1-c1onc([C@H]2CNCC[C@@H]2c2ccc(OCCOc3c(Cl)cc(C)cc3Cl)cc2)c1Br` [Structure 111]: the IC50 in experiment [1] was less than 0.05 nM; in experiment [2] it was 1.2 nM.
Regarding `COc1cc(CCNC(C)=O)c(-c2ccc([C@H]3CNCC[C@@H]3c3ccn(C)c(=O)c3)c(Cl)c2)cc1OC` (racemic) [Structure 66], the figures for the concentration for half-maximal inhibition (IC50) in experiment [1] and in experiment [2] were 1320 nM and 4900 nM, respectively.
In the same order, the values of `CC(=O)NCCc1ccccc1-c1ccc([C@H]2CNCC[C@@H]2c2ccc(F)c(F)c2)cc1` (racemic) [Structure 44] are 3.7 nM and 45 nM.
In the same order, the values of `CC(=O)NCCc1cccnc1-c1onc([C@H]2CNCC[C@]2(O)c2ccc(F)c(F)c2)c1Br` [Structure 97] are 10 nM and 89 nM.
The matching figures for `COC(=O)NCCc1ccccc1-c1ccc([C@H]2CNCC[C@@H]2c2cc(F)cc(F)c2)c(C)c1` (racemic) [Structure 28]: 0.56 nM and 25 nM.
For `Cc1cccc(-c2noc([C@H]3CNCC[C@]3(O)c3ccc(F)c(F)c3)c2Br)c1C` [Structure 73], the IC50 in experiment [1] was found to be 0.47 nM; in experiment [2], 21 nM.
In the same order, the values of `CC(=O)NCCc1ccccc1-c1noc([C@H]2CNCC[C@]2(O)c2ccc(F)c(F)c2)c1Br` [Structure 76] are 0.36 nM and 1.6 nM.
In the same order, the values of `CC(=O)NCCc1ccccc1-c1ccc([C@H]2CNCC[C@@H]2c2ccn(C)c(=O)c2)c(Cl)c1` (racemic) [Structure 58] are 3.6 nM and 7.1 nM.
In the same order, the values of `COCCCc1ccccc1-c1ccc([C@H]2CNCC[C@]2(O)c2cc(F)cc(F)c2)c(C)c1` (racemic) [Structure 39] are 4.2 nM and 750 nM.
Regarding `Cc1cc(-c2ccccc2CCNC(=O)c2cnn(C)c2)ccc1[C@H]1CNCC[C@@H]1c1cc(F)cc(F)c1` (racemic) [Structure 24], the half-maximal inhibitory concentration (IC50) in experiment [1] is 73 nM; in experiment [2], 1010 nM.
In the case of `CCOCC(F)(F)COCc1ccc([C@@]2(O)CCNC[C@@H]2c2ccc(-c3ccccc3CCNC(C)=O)cc2C)cc1` [Structure 122], the concentration for half-maximal inhibition (IC50) in experiment [1] was 0.09 nM; in experiment [2], 0.43 nM.
In the same order, the values of `CC(=O)NCCc1ccc(F)cc1-c1ccc([C@H]2CNCC[C@@H]2c2ccn(C)c(=O)c2)c(Cl)c1` (racemic) [Structure 65] are 6.5 nM and 6 nM.
`CCOCC(F)(F)COCc1ccc([C@@]2(O)CCNC[C@@H]2c2noc(-c3ccccc3CCNC(C)=O)c2Br)cc1` [Structure 114]: the half-inhibitory concentration (IC50) in experiment [1] was determined as 0.19 nM; in experiment [2], 0.58 nM.
